In patent US20240024338A1, “CARBIDOPA AND L-DOPA PRODRUGS AND METHODS OF USE” (AbbVie Inc., priority 2016, published 2024):

What was measured:
[1] = In vitro bioconversion study (skin homogenates), mini-pig; details: mini-pig skin homogenate 3 mg/mL, prodrug 2.5 μg/mL, 37° C.
[2] = In vitro bioconversion study, liver S9 fraction, human; type: in vitro ADME; details: human liver S9 fraction 1 mg/mL, prodrug 2.5 μg/mL, 37° C.
Procedure: (§2) The in vitro bioconversion of the L-dopa phosphate prodrugs to L-dopa and the carbidopa phosphate prodrugs to carbidopa was evaluated in several studies. In brief, the L-dopa and carbidopa phosphate prodrugs (2.5 μg/mL) were incubated with tissue homogenate or fractions from rats, mini-pigs, or human, including blood, skin homogenate (3 mg/mL), liver microsomes (1 mg/mL), liver S9 fraction (1 mg/mL), kidney S9 fraction (1 mg/mL), and intestine S9 fractions (1 mg/mL). The reaction mixtures were incubated at 37° C. for 5 to 6 time points within 1 to 2 hours. At the end of each time point, the reaction mixtures were quenched by 2 to 3 volumes of 5% trichloroacetic acid in water. After quenching, the mixtures were centrifuged at 3000 rpm for 20 minutes, and the supernatants were analyzed by LC-MS for quantitation of the prodrug, L-dopa or carbidopa. The in vitro bioconversion was assessed by monitoring both time-dependent depletion of the prodrug and the formation of the corresponding L-dopa or carbidopa.

[3] = In vitro bioconversion study (blood), rat; details: prodrug 2.5 μg/mL, 37° C.
Procedure: The in vitro bioconversion of the L-dopa phosphate prodrugs to L-dopa and the carbidopa phosphate prodrugs to carbidopa was evaluated in several studies. […] The reaction mixtures were incubated at 37° C. for 5 to 6 time points within 1 to 2 hours. At the end of each time point, the reaction mixtures were quenched by 2 to 3 volumes of 5% trichloroacetic acid in water. After quenching, the mixtures were centrifuged at 3000 rpm for 20 minutes, and the supernatants were analyzed by LC-MS for quantitation of the prodrug, L-dopa or carbidopa. The in vitro bioconversion was assessed by monitoring both time-dependent depletion of the prodrug and the formation of the corresponding L-dopa or carbidopa.

[4] = In vitro bioconversion study (intestinal S9 fractions), human; type: in vitro ADME; details: human intestinal S9 fraction 1 mg/mL, prodrug 2.5 μg/mL, 37° C.
Excerpt: (§1) The t1/2 appeared to be shorter in human intestinal S9 than in rat intestinal S9.

[5] = In vitro bioconversion study, liver S9 fraction, mini-pig; type: in vitro ADME; details: mini-pig liver S9 fraction 1 mg/mL, prodrug 2.5 μg/mL, 37° C.
Procedure: as §2

[6] = 1-Day stability study of prodrugs in aqueous solution; type: physicochemical; details: aqueous solution 80 μg/mL, ambient storage
Procedure: The L-dopa phosphate prodrugs and the carbidopa phosphate prodrugs were evaluated in a stability study.

[7] = Phosphate prodrug solubility study in water; type: physicochemical; details: for Solubility: water, ambient, visual assessment; for solubility compared to L-dopa and carbidopa (FIG. 1): pH of 7.4
Procedure: The L-dopa phosphate prodrugs and the carbidopa phosphate prodrugs were evaluated in a solubility study. The solubility values of the phosphate prodrugs in water under ambient conditions were determined by visual assessment. Table 13-A reports the results of the study, including the measured values for L-dopa and carbidopa.

[8] = In vitro bioconversion study, kidney S9 fraction, human; type: in vitro ADME; details: human kidney S9 fraction 1 mg/mL, prodrug 2.5 μg/mL, 37° C.
Procedure: as §2

[9] = In vitro bioconversion study, kidney S9 fraction, rat; type: in vitro ADME; details: rat kidney S9 fraction 1 mg/mL, prodrug 2.5 μg/mL, 37° C.
Procedure: as §2

[10] = In vitro bioconversion study, liver S9 fraction, rat; type: in vitro ADME; details: rat liver S9 fraction 1 mg/mL, prodrug 2.5 μg/mL, 37° C.
Procedure: as §2

[11] = In vitro bioconversion study (blood), mini-pig; type: in vitro ADME; details: prodrug 2.5 μg/mL, 37° C.
Procedure: as §2

[12] = In vitro bioconversion study (skin homogenates), rat; details: rat skin homogenate 3 mg/mL, prodrug 2.5 μg/mL, 37° C.
[13] = In vitro bioconversion study (skin homogenates), human; details: human skin homogenate 3 mg/mL, prodrug 2.5 μg/mL, 37° C.
[14] = In vitro bioconversion study (intestinal S9 fractions), rat; type: in vitro ADME; details: rat intestinal S9 fraction 1 mg/mL, prodrug 2.5 μg/mL, 37° C.
Excerpt: as §1

[15] = In vitro bioconversion study (blood), human; type: in vitro ADME; details: prodrug 2.5 μg/mL, 37° C.
Procedure: as §2

[16] = In vitro bioconversion study, human liver microsomes; type: in vitro ADME; details: human liver microsomes 1 mg/mL, prodrug 2.5 μg/mL, 37° C.
Procedure: as §2

[17] = 1-Day stability study, diphosphate combination solution; type: physicochemical; details: combination solution: L-dopa 3′,4′-diphosphate 35 mg/mL + carbidopa 3′,4′-diphosphate 8.7 mg/mL, pH 6.2, room temperature, nitrogen purged
Procedure: In addition, a solution combining the diphosphates of each compound (L-dopa 3′, 4′-diphosphate at 35 mg/mL and carbidopa 3′, 4′-diphosphate at 8.7 mg/mL) was monitored over one day at room temperature. This sample was purged with nitrogen to remove oxygen.

[18] = 15:1 L-dopa 4′-monophosphate/carbidopa 4′-monophosphate 16-hour SC infusion in mini-pigs; details: 15:1, 48/3.2 mg/kg
Procedure: In this study, the pig received a 16-hour subcutaneous infusion of a combination of the L-dopa 4′-monophosphate and the carbidopa 4′-monophosphate together in an aqueous solution at a dose ratio of 15:1 without an initial bolus dose. The doses were 48/3.2 mg/kg for L-dopa 4′-monophosphate and the carbidopa 4′-monophosphate, respectively.

[19] = L-dopa 4′-monophosphate/carbidopa 4′-monophosphate 4:1, 16-hour subcutaneous infusion in rats; type: in vivo; details: 4:1, SC bolus 60/14 mg/kg then infusion 300/71 mg/kg
Procedure: After 1.5 hours, the combination was dosed again via continuous infusion at a dose of 300/71 mg/kg over next 14.5 hours. Blood samples were collected at […], 0.25, 1, 6, 16, and 24 hours post dose. […] FIG. 7 provides a time-concentration profile for L-dopa and L-dopa 4′-monophosphate blood levels after administration of the combination of 4′-monophosphate prodrugs at a 4:1 ratio. […] Steady state concentration of ˜1 μg/mL was maintained over the infusion period for carbidopa. […] FIG. 9 provides a time-concentration profile for carbidopa and carbidopa 4′-monophosphate blood levels after administration of the combination of 4′-monophosphate prodrugs at a 4:1 ratio.

[20] = for Bioconversion ratio (prodrug to active drug), Value: projected for human, mean of ratios observed in preclinical animals
[21] = 7-Day stability study, 4′ monophosphate combination solution; type: physicochemical; details: combination solution: L-dopa 4′-monophosphate 200 mg/mL + carbidopa 4′-monophosphate 50 mg/mL, pH 7.4, room temperature
Procedure: In addition, a solution combining the L-dopa 4′-monophosphate at 200 mg/mL and carbidopa 4′-monophosphate at 50 mg/mL was monitored over 7 days at room temperature. These samples were prepared with and without purging with nitrogen to remove oxygen.

[22] = listed as diphosphate prodrug of carbidopa
[23] = listed as 3′,4′-diphosphate prodrug of carbidopa
[24] = listed as 4′-phosphate prodrug of carbidopa
[25] = listed as 4′-phosphate prodrug of L-dopa

Row | SMILES | L-Dopa or Carbidopa Formation [4] | L-Dopa or Carbidopa Formation [14] | CLp (plasma clearance), Value ([20]; human) [L/h] | L-Dopa or Carbidopa Formation [1] | T1/2 [1] | stability and formation of L-dopa or carbidopa [2] | L-Dopa or Carbidopa Formation [3] | T1/2 [3] [min] | stability and formation of L-dopa or carbidopa [5] | stability and formation of L-dopa or carbidopa [8] | stability and formation of L-dopa or carbidopa [9] | stability and formation of L-dopa or carbidopa [10] | L-Dopa or Carbidopa Formation [11] | L-Dopa or Carbidopa Formation [12] | T1/2 [12] | L-Dopa or Carbidopa Formation [13] | T1/2 [13] | L-Dopa or Carbidopa Formation [15] | stability and formation of L-dopa or carbidopa [16] | further results
1 | C[C@@](Cc1ccc(OP(=O)(O)O)c(OP(=O)(O)O)c1)(NN)C(=O)O [Carbidopa 3′,4′-diphosphate] | Yes | Yes | – | No | stable | stable without formation of L-dopa or carbidopa observed | Yes | 53 | stable without formation of L-dopa or carbidopa observed | stable without formation of L-dopa or carbidopa observed | stable without formation of L-dopa or carbidopa observed | stable without formation of L-dopa or carbidopa observed | No | No | stable | No | stable | No | stable without formation of L-dopa or carbidopa observed | T1/2 [4, 22]: rapidly dephosphorylated; % Remaining After One Day ([6]; pH 6.8): >97%; Solubility ([7]; pH 5.5, Amorphous): >247 mg/mL; T1/2 [11, 23]: stable; T1/2 [11, 22]: not dephosphorylated; T1/2 [14, 22]: rapidly dephosphorylated; T1/2 [15, 23]: stable; T1/2 [15, 22]: not dephosphorylated; % Remaining After One Day [17]: >99%
2 | C[C@@](Cc1ccc(O)c(OP(=O)(O)O)c1)(NN)C(=O)O [Carbidopa 3′-phosphate, Carbidopa 3′-monophosphate] | – | – | – | Yes | 413 min | – | Yes | 20.5 | – | – | – | – | Yes | Yes | 724 min | Yes | 602 min | Yes | – | % Remaining After One Day ([6]; pH 6.5): >94%; Solubility ([7]; pH 7.1, Amorphous): >96 mg/mL; T1/2 [11]: 8.9 min; T1/2 [15]: 58 min
3 | N[C@@H](Cc1ccc(O)c(OP(=O)(O)O)c1)C(=O)O [L-dopa 3′-phosphate] | – | – | – | Yes | 885 min | – | Yes | 20.6 | – | – | – | – | Yes | Yes | 737 min | Yes | 673 min | Yes | stable without formation of L-dopa or carbidopa observed | % Remaining After One Day ([6]; pH 7.0): >99%; Solubility ([7]; pH 7.0, Crystalline): >161 mg/mL; T1/2 [11]: 8.8 min; T1/2 [15]: 28 min
4 | N[C@@H](Cc1ccc(OP(=O)(O)O)c(O)c1)C(=O)O [L-dopa 4′-phosphate, (S)-2-amino-3-(3-hydroxy-4-(phosphonooxy)phenyl)propanoic acid] | Yes | Yes | 100 | Yes | – | stable without formation of L-dopa or carbidopa observed | Yes | – | stable without formation of L-dopa or carbidopa observed | stable without formation of L-dopa or carbidopa observed | stable without formation of L-dopa or carbidopa observed | stable without formation of L-dopa or carbidopa observed | – | – | – | Yes | – | – | – | exposure of remaining L-dopa 4′-monophosphate as % of the levodopa exposure [18]: ~10%; T1/2 [4, 25]: rapidly dephosphorylated; % Remaining After One Day ([6]; pH 7.0): >99%; solubility compared to L-dopa and carbidopa (FIG. 1) [7]: increased solubility; exposure of remaining L-dopa 4′-monophosphate as % of levodopa [19]: ~22%; SC F (subcutaneous bioavailability), Value ([20]; human): 0.75; Bioconversion ratio (prodrug to active drug), Value [20]: 0.9; % Remaining After 7 Days ([21]; Nitrogen Purged): >99%; % Remaining After 7 Days ([21]; Non-Purged): >99%; T1/2 [14, 25]: rapidly dephosphorylated

More lines, main results first:

Row | L-Dopa or Carbidopa Formation [4] | L-Dopa or Carbidopa Formation [14] | CLp (plasma clearance), Value ([20]; human) [L/h] | SMILES | L-Dopa or Carbidopa Formation [1] | T1/2 [1] | stability and formation of L-dopa or carbidopa [2] | L-Dopa or Carbidopa Formation [3] | T1/2 [3] [min] | stability and formation of L-dopa or carbidopa [5] | stability and formation of L-dopa or carbidopa [8] | stability and formation of L-dopa or carbidopa [9] | stability and formation of L-dopa or carbidopa [10] | L-Dopa or Carbidopa Formation [11] | L-Dopa or Carbidopa Formation [12] | T1/2 [12] | L-Dopa or Carbidopa Formation [13] | T1/2 [13] | L-Dopa or Carbidopa Formation [15] | stability and formation of L-dopa or carbidopa [16] | further results
5 | Yes | Yes | 141 | C[C@@](Cc1ccc(OP(=O)(O)O)c(O)c1)(NN)C(=O)O [Carbidopa 4′-phosphate, Carbidopa 4′-monophosphate] | Yes | – | stable without formation of L-dopa or carbidopa observed | Yes | – | stable without formation of L-dopa or carbidopa observed | stable without formation of L-dopa or carbidopa observed | stable without formation of L-dopa or carbidopa observed | stable without formation of L-dopa or carbidopa observed | – | – | – | Yes | – | – | stable without formation of L-dopa or carbidopa observed | exposure of remaining carbidopa 4′-monophosphate as % of the carbidopa exposure [18]: ~22%; T1/2 [4, 24]: rapidly dephosphorylated; % Remaining After One Day ([6]; pH 6.8): >98%; solubility compared to L-dopa and carbidopa (FIG. 1) [7]: increased solubility; exposure of remaining carbidopa 4′-monophosphate as % of carbidopa [19]: ~8%; SC F (subcutaneous bioavailability), Value ([20]; human): 0.65; Bioconversion ratio (prodrug to active drug), Value [20]: 0.7; % Remaining After 7 Days ([21]; Nitrogen Purged): >99%; % Remaining After 7 Days ([21]; Non-Purged): >97%; T1/2 [14, 24]: rapidly dephosphorylated
6 | – | – | 18 | C[C@@](Cc1ccc(O)c(O)c1)(NN)C(=O)O [Carbidopa, (2S)-3-(3,4-dihydroxyphenyl)-2-hydrazino-2-methylpropanoic acid] | – | – | – | – | – | – | – | – | – | – | – | – | – | – | – | – | –
7 | – | – | 24 | N[C@@H](Cc1ccc(O)c(O)c1)C(=O)O [L-dopa, L-3,4-dihydroxyphenylalanine] | – | – | – | – | – | – | – | – | – | – | – | – | – | – | – | – | CLp Levodopa ([20]; human): 24 L/h
